We go through eleven compounds from PMC11787452, “Substrate and inhibitor specificity of Plasmodium nucleoside transporters ENT1 orthologs” (The Journal of Biological Chemistry, 2024).

As usually defined, the pKd is the Kd on a negative log10 scale, so that one unit is a factor of ten.

pKd: −log10 of the molar value. Where “and” joins values, the source holds several entries; their conditions need not be identical. Equal values may be shown once. Read-outs that look alike come from different tables or passages of the source.

Experiment [1] addresses T1, PfENT1 (Plasmodium falciparum, UniProt Q8IDM6).
T1 construct: 10xHis (N); made in house; host or cells: Sf9 insect cells (baculovirus)
The experiment is described as follows: ITC binding to PfENT1. Conditions: for pKd: 25 °C, 25 mM MES pH 6.0, 150 mM NaCl, 0.05% DDM. Here is the method: (§1) All the constructs were subcloned and inserted into a modified pFastBac with an N-terminal 10 × His tag. The baculovirus was generated in DH10Bac for recombinant protein expression. After 72 h of infection, Sf9 insect cells were harvested. For structural determination of the PfENT1 protein, Sf9 cells were solubilized in buffer containing 25 mM MES (pH 6.0), 150 mM NaCl, 2% (w/v) n-dodecyl-β-D-maltopyranoside (DDM), and protease inhibitor cocktail (0.8 μM aprotinin, 2 μM pepstatin, and 5 μg/ml leupeptin) at 4 °C for 2 h. After centrifugation at 18,000 rpm for 45 min at 4 °C, the detergent-soluble supernatant was collected via centrifugation at 4 °C for 60 min and incubated with Ni-NTA resin (QIAGEN) at 4 °C for 20 min. The resin was further washed with 25 mM MES pH 6.0, 150 mM NaCl, 10 mM imidazole, and 0.05% (w/v) DDM and eluted with buffer containing 25 mM MES pH 6.0, 150 mM NaCl, 300 mM imidazole, and 0.05% (w/v) DDM. The protein was further purified via size-exclusion chromatography (Superdex 200 Increase 10/300; GE Healthcare) in buffer containing 25 mM MES (pH 6.0), 150 mM NaCl, and 0.05% (w/v) DDM. The peak fractions were pooled and concentrated to 10∼50 μM for the nucleoside-binding assay. The protein purification of the bacterial nucleoside transporter NupG was performed as described in previous studies ([35]).
(§2) […] binding to ENTs was measured at 25 °C via a MicroCal PEAQ-ITC. The purified ENT protein was concentrated to 25 to 50 μM for ITC experiments. The nucleoside was diluted to 5 mM via the same buffer employed for protein purification, which consisted of 25 mM MES (pH 6.0), 150 mM NaCl, and 0.05% DDM. The inhibitor was diluted to 250 μM via the same buffer employed for protein purification, which consisted of 25 mM MES (pH 6.0), 150 mM NaCl, and 0.05% DDM. All the titrations were repeated three times.

The target of experiment [2] is T2, PvENT1 (Plasmodium vivax, UniProt A5K8B0).
T2 construct: 10xHis (N); made in house; host or cells: Sf9 insect cells (baculovirus)
T2 sequence (A5K8B0 1-416): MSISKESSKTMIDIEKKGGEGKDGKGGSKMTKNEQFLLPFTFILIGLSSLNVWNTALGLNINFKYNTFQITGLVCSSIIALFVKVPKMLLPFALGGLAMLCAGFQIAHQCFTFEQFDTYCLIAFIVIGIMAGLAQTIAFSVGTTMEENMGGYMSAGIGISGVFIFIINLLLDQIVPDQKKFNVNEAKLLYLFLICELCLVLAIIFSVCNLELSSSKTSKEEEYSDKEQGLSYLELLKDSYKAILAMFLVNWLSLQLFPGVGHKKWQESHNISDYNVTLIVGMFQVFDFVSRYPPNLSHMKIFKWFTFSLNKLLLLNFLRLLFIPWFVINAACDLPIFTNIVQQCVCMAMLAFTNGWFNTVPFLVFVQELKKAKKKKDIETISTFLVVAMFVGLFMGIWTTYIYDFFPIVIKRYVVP
Briefly: ITC binding to PvENT1. Conditions: for pKd: 25 °C, 25 mM MES pH 6.0, 150 mM NaCl, 0.05% DDM. Here is the method: as §1, §2

The target of experiment [3] is T3, PbENT1 (Plasmodium berghei, UniProt A0A509AYF4).
T3 construct: 10xHis (N); made in house; host or cells: Sf9 insect cells (baculovirus)
T3 sequence (A0A509AYF4 1-412): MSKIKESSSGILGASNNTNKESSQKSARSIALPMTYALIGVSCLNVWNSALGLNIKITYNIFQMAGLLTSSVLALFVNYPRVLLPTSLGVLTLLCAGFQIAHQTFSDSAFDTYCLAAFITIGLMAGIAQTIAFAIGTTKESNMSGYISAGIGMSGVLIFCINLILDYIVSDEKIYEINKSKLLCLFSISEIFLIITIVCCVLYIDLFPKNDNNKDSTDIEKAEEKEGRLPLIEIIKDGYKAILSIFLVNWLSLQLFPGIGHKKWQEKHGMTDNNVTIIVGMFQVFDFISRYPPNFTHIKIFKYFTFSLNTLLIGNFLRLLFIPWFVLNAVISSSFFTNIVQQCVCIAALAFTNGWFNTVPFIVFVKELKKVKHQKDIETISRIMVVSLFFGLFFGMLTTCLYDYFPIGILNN
Briefly: ITC binding to PbENT1. Conditions: for pKd: 25 °C, 25 mM MES pH 6.0, 150 mM NaCl, 0.05% DDM. Here is the method: as §1, §2

In experiment [4] the target is T1, PfENT1. Also noted: method as in PMID 36977719. Particulars: competition assay; cited from earlier work.
The target in experiment [5] is T4, PbENT1M64I (Plasmodium berghei, UniProt A0A509AYF4, M64I).
T4 construct: 10xHis (N); made in house; host or cells: Sf9 insect cells (baculovirus)
T4 sequence (A0A509AYF4 whole entry M64I): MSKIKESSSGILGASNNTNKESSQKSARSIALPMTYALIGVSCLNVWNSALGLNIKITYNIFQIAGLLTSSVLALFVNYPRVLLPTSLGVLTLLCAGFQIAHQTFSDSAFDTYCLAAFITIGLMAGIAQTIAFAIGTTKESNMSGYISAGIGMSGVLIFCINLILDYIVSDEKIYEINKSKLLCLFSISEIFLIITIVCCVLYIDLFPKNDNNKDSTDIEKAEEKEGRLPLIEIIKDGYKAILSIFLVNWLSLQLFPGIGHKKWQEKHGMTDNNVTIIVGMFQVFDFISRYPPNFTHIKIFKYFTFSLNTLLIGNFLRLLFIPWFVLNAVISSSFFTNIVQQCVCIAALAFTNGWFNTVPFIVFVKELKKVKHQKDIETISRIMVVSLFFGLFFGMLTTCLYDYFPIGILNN
The experiment is described as follows: ITC binding to PbENT1M64I. Here is the method: as §1, with “The protein purification of the bacterial nucleoside transporter NupG was performed as described in previous studies ([35]).” left out
(§3) […] binding to ENTs was measured at 25 °C via a MicroCal PEAQ-ITC. […]

Experiment [6] addresses T5, PfENT1I70M (Plasmodium falciparum, UniProt Q8IDM6, I70M).
T5 construct: 10xHis (N); made in house; host or cells: Sf9 insect cells (baculovirus)
T5 sequence (Q8IDM6 1-422 I70M): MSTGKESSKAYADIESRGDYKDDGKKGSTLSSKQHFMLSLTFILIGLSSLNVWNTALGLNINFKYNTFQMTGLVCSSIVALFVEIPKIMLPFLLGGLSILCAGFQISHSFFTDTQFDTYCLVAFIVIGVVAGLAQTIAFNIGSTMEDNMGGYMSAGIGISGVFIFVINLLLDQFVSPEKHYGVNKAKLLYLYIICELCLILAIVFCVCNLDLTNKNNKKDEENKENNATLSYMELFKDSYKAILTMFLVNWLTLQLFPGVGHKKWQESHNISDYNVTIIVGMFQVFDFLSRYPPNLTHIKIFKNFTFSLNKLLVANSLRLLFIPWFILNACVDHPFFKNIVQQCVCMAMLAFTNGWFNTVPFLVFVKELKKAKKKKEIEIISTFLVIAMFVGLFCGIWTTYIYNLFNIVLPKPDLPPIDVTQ
Briefly: ITC binding to PfENT1I70M. Here is the method: as §1, with “The protein purification of the bacterial nucleoside transporter NupG was performed as described in previous studies ([35]).” left out
as §3

Experiment [7] addresses T6, PfENT1S49C (Plasmodium falciparum, UniProt Q8IDM6, S49C).
T6 construct: 10xHis (N); made in house; host or cells: Sf9 insect cells (baculovirus)
The experiment is described as follows: ITC binding to PfENT1S49C. Here is the method: as §1, with “The protein purification of the bacterial nucleoside transporter NupG was performed as described in previous studies ([35]).” left out
as §3

For experiment [8], the target named is T7, PbENT1C43S (Plasmodium berghei, UniProt A0A509AYF4, C43S).
T7 construct: 10xHis (N); made in house; host or cells: Sf9 insect cells (baculovirus)
T7 sequence (A0A509AYF4 whole entry C43S): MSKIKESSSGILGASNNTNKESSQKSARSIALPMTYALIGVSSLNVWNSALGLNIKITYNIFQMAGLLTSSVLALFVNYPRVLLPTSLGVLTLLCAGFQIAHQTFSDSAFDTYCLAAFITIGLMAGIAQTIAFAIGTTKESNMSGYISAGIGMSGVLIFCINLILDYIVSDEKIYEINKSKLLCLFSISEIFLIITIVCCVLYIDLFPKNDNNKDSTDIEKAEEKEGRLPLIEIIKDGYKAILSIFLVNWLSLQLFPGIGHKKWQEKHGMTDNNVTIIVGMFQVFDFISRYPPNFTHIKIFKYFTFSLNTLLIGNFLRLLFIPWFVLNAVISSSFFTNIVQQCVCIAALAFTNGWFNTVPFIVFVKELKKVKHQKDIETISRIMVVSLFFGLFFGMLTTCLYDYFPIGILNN
The experiment is described as follows: ITC binding to PbENT1C43S. Here is the method:
as §1, §2

The target in experiment [9] is T8, PfENT1M389L (Plasmodium falciparum, UniProt Q8IDM6, M389L).
T8 construct: 10xHis (N); made in house; host or cells: Sf9 insect cells (baculovirus)
T8 sequence (Q8IDM6 whole entry M389L): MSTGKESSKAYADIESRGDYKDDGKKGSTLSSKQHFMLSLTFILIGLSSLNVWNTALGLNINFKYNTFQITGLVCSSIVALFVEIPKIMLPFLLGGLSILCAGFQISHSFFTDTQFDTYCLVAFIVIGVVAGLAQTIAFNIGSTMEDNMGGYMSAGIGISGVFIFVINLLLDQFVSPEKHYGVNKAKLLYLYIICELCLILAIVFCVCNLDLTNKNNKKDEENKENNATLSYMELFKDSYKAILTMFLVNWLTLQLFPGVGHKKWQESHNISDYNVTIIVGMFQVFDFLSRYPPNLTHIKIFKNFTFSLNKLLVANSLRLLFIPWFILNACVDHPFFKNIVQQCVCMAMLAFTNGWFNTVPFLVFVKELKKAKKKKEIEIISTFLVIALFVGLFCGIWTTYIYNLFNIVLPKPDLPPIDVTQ
Briefly: ITC binding to PfENT1M389L. Here is the method:
as §1, §2

The target in experiment [10] is T9, PbENT1L388M (Plasmodium berghei, UniProt A0A509AYF4, L388M).
T9 construct: 10xHis (N); made in house; host or cells: Sf9 insect cells (baculovirus)
T9 sequence (A0A509AYF4 whole entry L388M): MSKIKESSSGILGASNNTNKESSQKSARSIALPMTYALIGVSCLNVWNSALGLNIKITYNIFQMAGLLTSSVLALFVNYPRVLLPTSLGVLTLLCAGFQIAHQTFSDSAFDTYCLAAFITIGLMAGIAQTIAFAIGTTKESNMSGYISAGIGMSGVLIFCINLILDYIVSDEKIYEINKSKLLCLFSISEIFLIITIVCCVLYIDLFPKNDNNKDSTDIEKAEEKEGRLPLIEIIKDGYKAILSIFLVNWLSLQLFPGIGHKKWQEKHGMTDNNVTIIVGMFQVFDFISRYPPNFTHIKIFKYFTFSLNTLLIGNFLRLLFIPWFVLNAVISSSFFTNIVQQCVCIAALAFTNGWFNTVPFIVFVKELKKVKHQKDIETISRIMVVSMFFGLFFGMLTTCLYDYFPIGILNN
The experiment is described as follows: ITC binding to PbENT1L388M. Here is the method:
as §1, with “The protein purification of the bacterial nucleoside transporter NupG was performed as described in previous studies ([35]).” left out
as §3

[11] abbreviates: Kd (binding affinity for PfENT1).
The mark [12] stands for this setting: read-out: Kd (binding affinity for PvENT1).
Setting [13] is: read-out: Kd (binding affinity for PbENT1).
Where [14] appears, read: read-out: Kd (binding affinity for PfENT1).

T1 sequence (Q8IDM6 whole entry): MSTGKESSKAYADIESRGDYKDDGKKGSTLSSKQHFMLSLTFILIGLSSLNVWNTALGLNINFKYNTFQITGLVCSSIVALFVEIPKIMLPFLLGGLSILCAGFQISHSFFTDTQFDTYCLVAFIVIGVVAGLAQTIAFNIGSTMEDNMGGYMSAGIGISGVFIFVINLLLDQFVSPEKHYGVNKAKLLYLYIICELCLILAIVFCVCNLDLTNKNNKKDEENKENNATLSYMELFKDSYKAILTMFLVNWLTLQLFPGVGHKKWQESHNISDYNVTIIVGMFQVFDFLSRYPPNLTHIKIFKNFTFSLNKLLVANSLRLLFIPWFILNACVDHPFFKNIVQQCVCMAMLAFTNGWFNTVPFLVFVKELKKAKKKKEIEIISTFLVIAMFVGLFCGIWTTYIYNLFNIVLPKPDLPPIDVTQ
T6 sequence (Q8IDM6 whole entry S49C): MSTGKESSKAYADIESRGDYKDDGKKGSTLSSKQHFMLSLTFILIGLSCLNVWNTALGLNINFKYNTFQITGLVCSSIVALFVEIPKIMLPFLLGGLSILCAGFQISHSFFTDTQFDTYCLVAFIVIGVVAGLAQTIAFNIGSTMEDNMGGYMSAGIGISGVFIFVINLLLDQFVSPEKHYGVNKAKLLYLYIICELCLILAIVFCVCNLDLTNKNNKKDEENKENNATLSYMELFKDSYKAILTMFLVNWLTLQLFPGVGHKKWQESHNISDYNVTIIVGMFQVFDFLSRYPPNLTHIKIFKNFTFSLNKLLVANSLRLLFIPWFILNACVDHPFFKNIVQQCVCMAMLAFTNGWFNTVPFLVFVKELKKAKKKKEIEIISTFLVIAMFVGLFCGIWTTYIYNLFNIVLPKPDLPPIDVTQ

Consider `Nc1nc2c(ncn2[C@@H]2O[C@H](CO)[C@@H](O)[C@H]2O)c(=O)[nH]1` [guanosine], for which the negative-log Kd (pKd) is about 3.75 in [1] (setting [11]); ~4.31 and 4.31 and 4.30 and 4.33 in experiment [2] (setting [12]); 4.81 and 5.06 and 4.95 in experiment [3] (setting [13]).

Regarding `Cc1cn([C@H]2C[C@H](O)[C@@H](CO)O2)c(=O)[nH]c1=O` [thymidine], the “inhibition of the inosine transport activity of PfENT1” value in experiment [4] is given as “effectively inhibited”. Besides, the “binding affinity for PfENT1 (in words)” value in experiment [1] (PfENT1 WT) was “undetectable”. Besides, the “binding affinity for PbENT1 (in words)” value in [3] is “weak”.

In the case of `O=c1[nH]cnc2c1ncn2[C@@H]1O[C@H](CO)[C@@H](O)[C@H]1O` [inosine], the “thermodynamic pattern of binding to PfENT1” value in experiment [1] was “entropy-driven”. Further, the pKd in experiment [1] (setting [14]) was 4.11. The “ΔH of binding to PfENT1” value in [1] (endothermic reaction) is reported as over 0. For the same compound, the “binding affinity of PbENT1M64I relative to WT PbENT1” value in [5] was “fivefold lower”. The “affinity for PfENT1I70M (in words)” value in experiment [6] (compared with PfENT1) is listed as “comparable affinity”. The “binding to PfENT1S49C (in words)” value in experiment [7] is recorded as “complete abolishment”. Also, in experiment [2], the “thermodynamic pattern of binding to PvENT1” value is recorded as “enthalpy-entropy compensation”. Further, the “ΔH of binding to PvENT1” value in experiment [2] (exothermic reaction) was under 0. In addition, in experiment [3], the “thermodynamic pattern of binding to PbENT1” value was “enthalpy-driven”. Also, in [3] (exothermic reaction), the “ΔH of binding to PbENT1” value is listed as under 0. Moreover, the “binding affinity of PbENT1C43S relative to WT PbENT1” value in experiment [8] is reported as “fivefold lower”.

As to `Cc1oc(-c2ccccc2Cl)nc1C(=O)NCCN1CCCCCC1=O` [GSK4-2], in [1], the “decrease in binding affinity for PfENT1 (versus GSK4)” value came out at 1.6 fold.

In the case of `Nc1ncnc2c1ncn2[C@@H]1O[C@H](CO)[C@@H](O)[C@H]1O` [adenosine], in experiment [4], the “inhibition of the inosine transport activity of PfENT1” value is reported as “effectively inhibited”. Also, in experiment [7], the “thermodynamic pattern of binding to PfENT1S49C” value is “enthalpy-driven”. Also, the pKd in experiment [3] (setting [13]) was 4.42 and 4.44 and 4.39. The “binding to PbENT1C43S (in words)” value in [8] is “did not show detectable adenosine binding”.

For `Nc1ccn([C@@H]2O[C@H](CO)[C@@H](O)[C@H]2O)c(=O)n1` [cytidine], the “binding affinity for PbENT1 (in words)” value in [3] was “No binding affinity was detected”.

Turning to `Cc1oc(-c2ccccc2)nc1C(=O)NCCN1CCCCCC1=O` [GSK4], the pKd in [1] (setting [11]) was 7.42 and 7.28 and 7.32; in [2] (setting [12]), 7.27 and 7.43 and ~7.33 and 7.33; in experiment [9] (Kd (binding to PfENT1M389L), 25 °C, pH 6.0), 6.63 and 6.50 and 6.56; in experiment [3] (setting [13]), 4.81 and 5.31 and 4.90; in experiment [10] (Kd (binding to PbENT1L388M), 25 °C, pH 6.0), 5.59 and 5.68 and 5.56. Moreover, the “binding affinity of PfENT1M389L relative to PfENT1WT” value in [9] was “five times weaker”. Besides, the “binding affinity of PbENT1L388M relative to PbENT1WT” value in [10] is listed as “five times greater”.

As to `OC[C@H]1O[C@@H](n2cnc3c(O)ncnc32)[C@H](O)[C@@H]1O` [inosine], the pKd in experiment [1] (setting [14]) was about 4.19; in [5] (Kd (binding to PbENT1M64I), 25 °C, pH 6.0), 4.21 and 4.27 and 4.23; in experiment [6] (25 °C, pH 6.0) it was 4.23 and 4.11 and 4.19; in [2] (setting [12]), ~3.84 and 3.84 and 3.79 and 3.76; in experiment [3] (setting [13]), 4.87 and 5.21; in experiment [8] (Kd (binding to PbENT1C43S), 25 °C, pH 6.0), 4.29 and 4.25 and 4.23.

For `Cc1oc(-c2ccc(Cl)cc2)nc1C(=O)NCCN1CCCCCC1=O` [GSK4-1], the “decrease in binding affinity for PfENT1 (versus GSK4)” value in experiment [1] amounted to 3.5 fold.

`O=c1ccn([C@@H]2O[C@H](CO)[C@@H](O)[C@H]2O)c(=O)[nH]1` [uridine]: the “binding affinity for PbENT1 (in words)” value in experiment [3] is “No binding affinity was detected”.

For the compound `O=c1[nH]c(=O)c2ncn([C@@H]3O[C@H](CO)[C@@H](O)[C@H]3O)c2[nH]1` [xanthosine], the pKd in experiment [2] (Kd (binding affinity for PvENT1)) is 3.94 and 3.91 and 3.97; in [3] (Kd (binding affinity for PbENT1)), 4.05 and 4.03 and 4.02.
